Data on 1 compound can be found in publication PMC6934184, “Selective DNA-PKcs inhibition extends the therapeutic index of localized radiotherapy and chemotherapy” (The Journal of Clinical Investigation, 2019).

The test concerns the target T1, MAPK11 (p38 beta) (Homo sapiens, UniProt Q15759).
T1 construct: purchased Thermo Fisher Scientific (Life Technologies) SelectScreen
As to the kind of experiment: SelectScreen Z'LYTE. Type of test: biochemical. An outline of the steps:
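Percent values come from Thermo SelectScreen profiling of NU5455, combining activity and binding assays. CSF1R was run in Z'LYTE format at Km app ATP, and CAMK1 in Adapta format with ATP listed at 10.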

As usually defined, the inhibition is the relative decrease from the control value, in per cent. Read a high inhibition as a strong effect.

T1 sequence (Q15759 whole entry): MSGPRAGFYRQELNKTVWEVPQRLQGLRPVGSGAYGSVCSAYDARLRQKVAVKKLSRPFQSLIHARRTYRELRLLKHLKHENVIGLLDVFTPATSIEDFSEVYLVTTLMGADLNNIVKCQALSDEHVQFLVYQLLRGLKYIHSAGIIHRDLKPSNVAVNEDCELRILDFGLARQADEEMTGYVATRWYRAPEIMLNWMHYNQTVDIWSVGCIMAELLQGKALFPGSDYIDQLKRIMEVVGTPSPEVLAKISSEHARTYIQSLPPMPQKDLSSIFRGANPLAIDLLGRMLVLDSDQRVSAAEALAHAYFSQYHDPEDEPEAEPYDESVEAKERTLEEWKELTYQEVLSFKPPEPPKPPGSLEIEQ

Regarding `CN(C(=O)CN1CCOCC1)c1ccc2sc3c(-c4cccc5c(=O)cc(N6CC7CCC(C6)O7)oc45)cccc3c2c1` [NU5455], the inhibition at 1 µM stood at 9.5%.
